Source: patent US8987257B2 (Novartis AG, priority 2011, dated 2015)

Experiments:
PI3Kα = PI3Kα (Homo sapiens (Human), UniProt P42336); assay: Test 1: PI3 Kinase Assay (PI3K KinaseGlo assay); format: biochemical; conditions: 1 μM ATP
FRAP1/mTOR = FRAP1/mTOR (Homo sapiens (Human), UniProt P42345); assay: Test 2: mTOR Biochemical Assay (FRAP1/mTOR TR-FRET tracer assay); format: binding; conditions: mTOR Kinase Tracer 314
[1] = tested on: constitutively active mTOR; assay: Test 3: TSC Assay (high content imaging of phospho-S6 (240/244) in TSC1−/− MEFs); format: cell-based; conditions: Mus musculus, pS6 240/244 staining, 2 hrs compound treatment
H4 mCherry-GFP-LC3 cells = assay: Test 4: Autophagy Assay (mCherry-GFP-LC3 reporter, high-content imaging); format: cell-based; conditions: Homo sapiens, 16-18 h
Source text: Autophagy is a catabolic pathway that degrades bulk cytosol in lysosomal compartments enabling amino acids and fatty acids to be recycled. […] To quantify autophagy induction by mTOR inhibitors, we use a mCherry-GFP-LC3 reporter which is amenable to retroviral delivery into mammalian cells, stable expression and analysis by fluorescence microscopy.
Described hereinafter is an imaging protocol and image recognition algorithm to visualize and measure changes in the autophagic pathway.
Quantification of Autophagy Using High-Content Imaging and Analysis
• 1. Day 0: Cell plating. Subconfluent H4 mCherry-GFP-LC3 cells are harvested by trypsinization, resuspended in growth medium, and counted (H4 cells: Human neuroglioma cell line (ATCC)). A cell suspension of 66′000 cells/mL is prepared and 30 μL are added into the wells of a 384-well plate using an electronic multichannel pipette. […] The cell plates are briefly spun down and placed at 37° C. and 5% CO2. • 2. Day 1: Compound treatment. Compound dose responses are prepared in DMSO. The dose responses are then diluted 1:50 in medium. 10 ul of the diluted compound is added to 30 ul of cells, yielding a final 1:200 dilution of the original compound and final of 0.5% DMSO. Compound-treatments are performed in triplicates. The 384-well plates are placed at 37° C. and 5% CO2. Compound treatment is performed for 16-18 h (see Note 1). • 3. Day 2: Cell fixation. Cells are fixed by adding 10 μL/well 5× concentrated Mirsky's fixative supplemented with 25 μg/mL Hoechst33342. […] The 384-well plate is briefly spun down and incubated for 1 h at room temperature. Cells are then washed using a 384-well plate washer using a protocol which aspirates the volume down to 10 μL/well before dispensing 100 μL/well 1×TBS. Aspiration and dispensing steps are repeated 4 times and a final volume of 100 μL/well is left. The plate is sealed using an adhesive PCR foil. • 4. Imaging. The bottom of the plate is cleaned with 70% ethanol and then imaged using the InCell 1000 automated epifluorescence microscope. 20× magnification is used and 4 different areas (fields) are imaged per well, this typically captures a total of around 400 cells per well. Hoechst33342 images are acquired using an excitation of 360 nm (D360—40× filter), an emission of 460 nm (HQ460—40M filter) and an exposure time of 150 ms. GFP images are acquired using an excitation of 475 nm (S47520× filter), an emission of 535 nm (HQ535—50M filter) and an exposure time of 1 s. mCherry images are acquired using an excitation of 535 nm (HQ535—50× filter), an emission of 620 nm (HQ620—60M filter) and an exposure time of 1 s. A quadruple band pass mirror is used for all images. • 5. Image analysis. The InCell Analysis software is used to analyze the images using the Multi Target Analysis algorithm. First, nuclei are detected in the Hoechst33342 image using top-hat segmentation and a minimal nuclear area of 50 μm^2. Cells are defined using a collar of 10 μm around the nuclei. Second, puncta (organelles) are identified in the mCherry image inside the cells using multi-top-hat segmentation. Third, the mask of the mCherry puncta is transferred onto the GFP image. Fourth, the GFP fluorescence intensity inside the mCherry puncta mask is measured (reference intensity). • 6. The ‘organelles’ parameter reflects mCherry-positive puncta of the mCherry-GFP-LC3 reporter and is used to calculate ‘LC3 puncta/cell’. For this purpose, the number of organelles is calculated per cell and averaged over all the cells in a given well (average per cell basis). mCherry-positive LC3 puncta numbers (y-axis) are plotted against the compound dose response values (x-axis) and EC50 values are calculated for each compound. EC50 values represent compound potency in terms of autophagy activation (e.g. increase in mCherry-positive LC3 puncta count). Notes • 1. Autophagy-modulation and redistribution of mCherry-GFP-LC3 can be already observed after a compound treatment time of 3-4 h. […]

[2] = Table 1, mCherry-positive LC3 puncta/cell
[3] = Table 4 (unit inferred), mCherry-positive LC3 puncta/cell

Chain of FRAP1/mTOR (P42345 1360-2549): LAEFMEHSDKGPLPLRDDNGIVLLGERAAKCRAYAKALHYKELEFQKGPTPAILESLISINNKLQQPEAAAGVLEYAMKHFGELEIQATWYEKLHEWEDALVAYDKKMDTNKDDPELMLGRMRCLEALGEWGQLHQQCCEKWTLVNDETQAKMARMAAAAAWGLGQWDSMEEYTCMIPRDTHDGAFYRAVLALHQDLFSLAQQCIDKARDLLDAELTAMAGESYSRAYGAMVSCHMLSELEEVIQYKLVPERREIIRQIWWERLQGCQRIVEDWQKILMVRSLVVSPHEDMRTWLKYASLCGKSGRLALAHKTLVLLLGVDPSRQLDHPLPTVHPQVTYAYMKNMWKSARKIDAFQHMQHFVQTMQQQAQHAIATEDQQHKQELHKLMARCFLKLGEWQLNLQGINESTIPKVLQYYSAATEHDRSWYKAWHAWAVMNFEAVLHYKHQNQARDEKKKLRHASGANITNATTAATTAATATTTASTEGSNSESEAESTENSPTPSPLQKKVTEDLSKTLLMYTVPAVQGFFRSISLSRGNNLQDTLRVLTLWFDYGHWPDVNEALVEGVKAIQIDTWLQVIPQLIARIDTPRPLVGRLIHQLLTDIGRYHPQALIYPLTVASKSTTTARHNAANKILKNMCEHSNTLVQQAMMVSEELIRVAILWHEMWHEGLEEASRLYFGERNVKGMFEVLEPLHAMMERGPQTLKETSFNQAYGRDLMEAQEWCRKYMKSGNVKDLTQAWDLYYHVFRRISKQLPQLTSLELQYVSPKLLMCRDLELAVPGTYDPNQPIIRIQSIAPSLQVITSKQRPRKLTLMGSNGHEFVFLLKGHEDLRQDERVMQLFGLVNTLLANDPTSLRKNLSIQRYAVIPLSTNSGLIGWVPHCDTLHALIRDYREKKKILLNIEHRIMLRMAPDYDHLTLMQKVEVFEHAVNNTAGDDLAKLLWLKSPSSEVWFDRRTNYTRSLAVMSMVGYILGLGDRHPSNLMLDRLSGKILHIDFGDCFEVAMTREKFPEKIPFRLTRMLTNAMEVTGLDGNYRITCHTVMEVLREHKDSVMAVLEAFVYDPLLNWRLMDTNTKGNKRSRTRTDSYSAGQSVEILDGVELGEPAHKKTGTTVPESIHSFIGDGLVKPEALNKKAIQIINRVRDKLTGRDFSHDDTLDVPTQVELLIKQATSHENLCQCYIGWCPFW
Chain of PI3Kα (P42336 other isoform, or with tags, fused parts or gaps): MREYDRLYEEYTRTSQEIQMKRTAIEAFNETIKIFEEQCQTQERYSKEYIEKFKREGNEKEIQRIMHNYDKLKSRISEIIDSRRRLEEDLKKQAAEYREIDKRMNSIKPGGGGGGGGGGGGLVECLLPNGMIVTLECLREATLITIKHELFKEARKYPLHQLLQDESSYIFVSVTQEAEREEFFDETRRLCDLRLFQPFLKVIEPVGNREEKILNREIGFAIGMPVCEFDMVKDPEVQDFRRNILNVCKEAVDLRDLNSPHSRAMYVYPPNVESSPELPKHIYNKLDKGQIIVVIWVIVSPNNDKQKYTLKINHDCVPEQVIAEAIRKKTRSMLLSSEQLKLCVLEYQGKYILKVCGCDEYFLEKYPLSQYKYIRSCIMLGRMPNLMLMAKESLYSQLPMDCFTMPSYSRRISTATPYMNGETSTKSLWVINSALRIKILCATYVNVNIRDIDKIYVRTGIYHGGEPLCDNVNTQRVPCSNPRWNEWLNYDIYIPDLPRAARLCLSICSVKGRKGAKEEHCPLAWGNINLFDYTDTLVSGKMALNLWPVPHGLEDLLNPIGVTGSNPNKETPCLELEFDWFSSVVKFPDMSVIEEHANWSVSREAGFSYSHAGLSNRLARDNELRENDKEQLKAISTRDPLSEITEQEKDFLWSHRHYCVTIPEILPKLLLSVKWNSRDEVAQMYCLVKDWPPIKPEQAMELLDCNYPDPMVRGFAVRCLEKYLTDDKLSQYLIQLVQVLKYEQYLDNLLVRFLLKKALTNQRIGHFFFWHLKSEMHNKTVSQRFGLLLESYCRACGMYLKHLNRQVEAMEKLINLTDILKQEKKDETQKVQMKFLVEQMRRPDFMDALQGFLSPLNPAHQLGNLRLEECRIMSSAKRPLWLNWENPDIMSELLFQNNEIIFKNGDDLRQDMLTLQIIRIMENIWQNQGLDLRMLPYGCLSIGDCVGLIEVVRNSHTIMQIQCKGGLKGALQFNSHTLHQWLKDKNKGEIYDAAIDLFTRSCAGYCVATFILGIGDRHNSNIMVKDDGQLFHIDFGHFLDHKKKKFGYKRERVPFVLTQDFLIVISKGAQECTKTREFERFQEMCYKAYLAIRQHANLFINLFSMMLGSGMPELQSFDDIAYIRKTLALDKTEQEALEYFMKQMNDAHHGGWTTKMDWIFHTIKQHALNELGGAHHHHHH

IC50 (PI3Kα) [nM] | IC50 (FRAP1/mTOR) [nM] | IC50 [1] [nM] | EC50 (H4 mCherry-GFP-LC3 cells; [2]) [nM] | SMILES | EC50 (H4 mCherry-GFP-LC3 cells; [3]) [nM]
6050 | 6 | 90 | 452 | C[C@@H]1COCCN1c1nc(N2CCOCC2)nc2[nH]c(-c3cccc4[nH]ccc34)nc12 [Example 20, 8-(1H-Indol-4-yl)-6-((R)-3-methyl-morpholin-4-yl)-2-morpholin-4-yl-9H-purine] | –
4220 | 1200 | 920 | – | c1cc(-c2nc3c(N4C[C@@H]5C[C@H]4CO5)nc(N4CCOCC4)nc3[nH]2)c2cc[nH]c2c1 [Example 50, 8-(1H-Indol-4-yl)-2-morpholin-4-yl-6-(1S,4S)-2-oxa-5-aza-bicyclo[2.2.1]hept-5-yl-9H-purine] | 8670
> 9100 | 150 | 551 | 2590 | C[C@H]1COCCN1c1nc(N2CCC(F)(F)CC2)nc2[nH]c(-c3cccc4[nH]ccc34)nc12 [Example 5, 2-(4,4-Difluoro-piperidin-1-yl)-8-(1H-indol-4-yl)-6-((S)-3-methyl-morpholin-4-yl)-9H-purine] | –
8540 | 85 | 632 | – | C[C@H]1COCCN1c1nc(N2CCOCC2)nc2[nH]c(-c3ccc4cc[nH]c4c3)nc12 [Example 24, 8-(1H-Indol-6-yl)-6-((S)-3-methyl-morpholin-4-yl)-2-morpholin-4-yl-9H-purine] | –
10 | – | 620 | – | OCc1cccc(-c2nc3c(N4CCOCC4)nc(N4CCOCC4)nc3[nH]2)c1 [Example 37, [3-(2,6-Di-morpholin-4-yl-9H-purin-8-yl)-phenyl]-methanol] | –
480 | – | > 50000 | – | Oc1ccccc1-c1nc2c(N3CCOCC3)nc(N3CCOCC3)nc2[nH]1 [Example 38, 2-(2,6-Di-morpholin-4-yl-9H-purin-8-yl)-phenol] | –
20 | – | 118 | – | C[C@@H]1CN(c2nc(N3CCOCC3)c3nc(-c4cccc(O)c4)[nH]c3n2)C[C@H](C)O1 [Example 1, 3-[2-((2S,6R)-2,6-Dimethyl-morpholin-4-yl)-6-morpholin-4-yl-9H-purin-8-yl]-phenol] | –
> 9100 | – | 8000 | – | C[C@@H]1CN(c2nc(N3CCOCC3)c3nc(-c4ccccc4CO)[nH]c3n2)C[C@H](C)O1 [Example 34, {2-[2-((2S,6R)-2,6-Dimethyl-morpholin-4-yl)-6-morpholin-4-yl-9H-purin-8-yl]-phenyl}-methanol] | –

More lines, now with the values behind:

SMILES | IC50 (PI3Kα) [nM] | IC50 (FRAP1/mTOR) [nM] | IC50 [1] [nM] | EC50 (H4 mCherry-GFP-LC3 cells; [2]) [nM] | EC50 (H4 mCherry-GFP-LC3 cells; [3]) [nM]
COc1ccc(-c2nc3c(N4CCOC[C@@H]4C)nc(N4CCOCC4)nc3[nH]2)cc1C(=O)O [Example 9, 2-Methoxy-5-[6-((S)-3-methyl-morpholin-4-yl)-2-morpholin-4-yl-9H-purin-8-yl]-benzoic acid] | > 9100 | 3200 | 7300 | > 10000 | –
c1cc2ccc(-c3nc4c(N5C6CCC5COC6)nc(N5CCOCC5)nc4[nH]3)cc2[nH]1 [Example 53, 8-(1H-Indol-6-yl)-2-morpholin-4-yl-6-(3-oxa-8-aza-bicyclo[3.2.1]oct-8-yl)-9H-purine] | > 9100 | 190 | 528 | – | 782
C[C@@H]1COCCN1c1nc(N2CCOC[C@@H]2C)nc2[nH]c(-c3cccc4c3CCN4)nc12 [Example 41, 8-(2,3-Dihydro-1H-indol-4-yl)-2-((S)-3-methyl-morpholin-4-yl)-6-((R)-3-methyl-morpholin-4-yl)-9H-purine] | 3350 | 30 | 457 | – | 2900
c1cc(-c2nc3c(N4C5CCC4COC5)nc(N4CCOCC4)nc3[nH]2)c2cc[nH]c2c1 [Example 54, 8-(1H-Indol-4-yl)-2-morpholin-4-yl-6-(3-oxa-8-aza-bicyclo[3.2.1]oct-8-yl)-9H-purine] | 5790 | 150 | 309 | – | 1250
C[C@H]1COCCN1c1nc(N2CCOCC2)c2nc(-c3ccc4cc[nH]c4c3)[nH]c2n1 [Example 49] | 4430 | 370 | 678 | – | > 500
C[C@H]1COCCN1c1nc(N2CCC(O)CC2)nc2[nH]c(-c3cccc4[nH]ccc34)nc12 [Example 16, 1-[8-(1H-Indol-4-yl)-6-((S)-3-methyl-morpholin-4-yl)-9H-purin-2-yl]-piperidin-4-ol] | 7300 | 160 | 460 | 2000 | –
c1cc(-c2nc3c(N4CC5CCC(C4)O5)nc(N4CCOCC4)nc3[nH]2)c2cc[nH]c2c1 [Example 8, 8-(1H-Indol-4-yl)-2-morpholin-4-yl-6-(8-oxa-3-aza-bicyclo[3.2.1]oct-3-yl)-9H-purine] | > 9100 | 41 | 127 | 731 | –
C[C@@H]1COCCN1c1nc(N2CCOC[C@@H]2C)c2nc(-c3cccc4[nH]ccc34)[nH]c2n1 [Example 18, 8-(1H-Indol-4-yl)-2-((R)-3-methyl-morpholin-4-yl)-6-((S)-3-methyl-morpholin-4-yl)-9H-purine] | 5050 | 46 | 70 | 2500 | –
COc1cc(CO)cc(-c2nc3c(N4CCOC[C@@H]4C)nc(N4CCOC[C@@H]4C)nc3[nH]2)c1 [Example 17, {3-[2,6-Bis-((S)-3-methyl-morpholin-4-yl)-9H-purin-8-yl]-5-methoxy-phenyl}-methanol] | 400 | 399 | 1510 | 3190 | –
COc1ccc(-c2nc3c(N4CCOC[C@@H]4C)nc(N4CCOC[C@@H]4C)nc3[nH]2)cc1CO [Example 7, {5-[2,6-Bis-((S)-3-methyl-morpholin-4-yl)-9H-purin-8-yl]-2-methoxy-phenyl}-methanol] | 2540 | – | 455 | – | –
C[C@@H]1CN(c2nc(N3CCOCC3)c3nc(-c4cccc(N)c4)[nH]c3n2)C[C@H](C)O1 [Example 32, 3-[2-((2S,6R)-2,6-Dimethyl-morpholin-4-yl)-6-morpholin-4-yl-9H-purin-8-yl]-phenylamine] | 2520 | 1040 | 1040 | – | –
Oc1cccc(-c2nc3c(N4CCOCC4)nc(N4CCOCC4)nc3[nH]2)c1 [Example 36, 3-(2,6-Di-morpholin-4-yl-9H-purin-8-yl)-phenol] | 20 | – | 73 | – | –
C[C@H]1COCCN1c1nc(N2CCOC[C@@H]2C)c2nc(-c3ccc4[nH]c(=O)[nH]c4c3)[nH]c2n1 [Example 6, 5-[2,6-Bis-((S)-3-methyl-morpholin-4-yl)-9H-purin-8-yl]-1,3-dihydro-benzoimidazol-2-one] | > 9100 | 30 | 1450 | – | –
OCc1ccccc1-c1nc2c(N3CCOCC3)nc(N3CCOCC3)nc2[nH]1 [Example 35, [2-(2,6-Di-morpholin-4-yl-9H-purin-8-yl)-phenyl]-methanol] | 5870 | – | 4010 | – | –
Cc1cc2c(-c3nc4c(N5CCOCC5)nc(N5CCOCC5)nc4[nH]3)cccc2[nH]1 [Example 31, 8-(2-Methyl-1H-indol-4-yl)-2,6-di-morpholin-4-yl-9H-purine] | 590 | – | 315 | – | –
